Assay results published in patent US20240100170A1, “CYCLIC-AMP RESPONSE ELEMENT BINDING PROTEIN (CBP) AND/OR ADENOVIRAL E1A BINDING PROTEIN OF 300 KDA (P300) DEGRADATION COMPOUNDS AND METHODS OF USE” (CULLGEN (SHANGHAI), INC., priority 2020, published 2024).

Experiments:
[1] = tested on: LNCaP prostate cancer cell; experiment: LNCaP cell viability (CellTiter-Glo); format: cell-based; conditions: Homo sapiens, 72 h; LNCaP cell viability, 3 days, CellTiter-Glo; Table 4
Summary of the method: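 LNCaP cells (5000/well, RPMI 1640 + 10% FBS, 37 °C) treated with compounds in 12-point 3-fold serial dilution for three days. Viability read by CellTiter-Glo luminescence, normalized to untreated cells; IC50 from least-squares nonlinear regression.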

P300 = P300 (Homo sapiens, UniProt Q09472); experiment: percentage of inhibition (degradation) of p300 at 10 nM, Tables 2-4; format: cell-based; parameters: LNCaP or 22RV1 cells that express CBP/P300 proteins were treated with GNE-781 or the bivalent compounds; endogenous in cells; host or cells: LNCaP or 22RV1 (not given); conditions: p300, 10 nM; Table 4; read-out: Degradation (10 nM)
Summary of the method: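 Degradation was measured at 10 nM. Cells or tissue were lysed in RIPA with protease and phosphatase inhibitors for 30 min at 4 °C and cleared, and protein was quantified by BCA. Lysates were resolved by SDS-PAGE, detected by chemiluminescent immunoblot, and bands were quantified by densitometry.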

P300, sequence (Q09472 whole entry): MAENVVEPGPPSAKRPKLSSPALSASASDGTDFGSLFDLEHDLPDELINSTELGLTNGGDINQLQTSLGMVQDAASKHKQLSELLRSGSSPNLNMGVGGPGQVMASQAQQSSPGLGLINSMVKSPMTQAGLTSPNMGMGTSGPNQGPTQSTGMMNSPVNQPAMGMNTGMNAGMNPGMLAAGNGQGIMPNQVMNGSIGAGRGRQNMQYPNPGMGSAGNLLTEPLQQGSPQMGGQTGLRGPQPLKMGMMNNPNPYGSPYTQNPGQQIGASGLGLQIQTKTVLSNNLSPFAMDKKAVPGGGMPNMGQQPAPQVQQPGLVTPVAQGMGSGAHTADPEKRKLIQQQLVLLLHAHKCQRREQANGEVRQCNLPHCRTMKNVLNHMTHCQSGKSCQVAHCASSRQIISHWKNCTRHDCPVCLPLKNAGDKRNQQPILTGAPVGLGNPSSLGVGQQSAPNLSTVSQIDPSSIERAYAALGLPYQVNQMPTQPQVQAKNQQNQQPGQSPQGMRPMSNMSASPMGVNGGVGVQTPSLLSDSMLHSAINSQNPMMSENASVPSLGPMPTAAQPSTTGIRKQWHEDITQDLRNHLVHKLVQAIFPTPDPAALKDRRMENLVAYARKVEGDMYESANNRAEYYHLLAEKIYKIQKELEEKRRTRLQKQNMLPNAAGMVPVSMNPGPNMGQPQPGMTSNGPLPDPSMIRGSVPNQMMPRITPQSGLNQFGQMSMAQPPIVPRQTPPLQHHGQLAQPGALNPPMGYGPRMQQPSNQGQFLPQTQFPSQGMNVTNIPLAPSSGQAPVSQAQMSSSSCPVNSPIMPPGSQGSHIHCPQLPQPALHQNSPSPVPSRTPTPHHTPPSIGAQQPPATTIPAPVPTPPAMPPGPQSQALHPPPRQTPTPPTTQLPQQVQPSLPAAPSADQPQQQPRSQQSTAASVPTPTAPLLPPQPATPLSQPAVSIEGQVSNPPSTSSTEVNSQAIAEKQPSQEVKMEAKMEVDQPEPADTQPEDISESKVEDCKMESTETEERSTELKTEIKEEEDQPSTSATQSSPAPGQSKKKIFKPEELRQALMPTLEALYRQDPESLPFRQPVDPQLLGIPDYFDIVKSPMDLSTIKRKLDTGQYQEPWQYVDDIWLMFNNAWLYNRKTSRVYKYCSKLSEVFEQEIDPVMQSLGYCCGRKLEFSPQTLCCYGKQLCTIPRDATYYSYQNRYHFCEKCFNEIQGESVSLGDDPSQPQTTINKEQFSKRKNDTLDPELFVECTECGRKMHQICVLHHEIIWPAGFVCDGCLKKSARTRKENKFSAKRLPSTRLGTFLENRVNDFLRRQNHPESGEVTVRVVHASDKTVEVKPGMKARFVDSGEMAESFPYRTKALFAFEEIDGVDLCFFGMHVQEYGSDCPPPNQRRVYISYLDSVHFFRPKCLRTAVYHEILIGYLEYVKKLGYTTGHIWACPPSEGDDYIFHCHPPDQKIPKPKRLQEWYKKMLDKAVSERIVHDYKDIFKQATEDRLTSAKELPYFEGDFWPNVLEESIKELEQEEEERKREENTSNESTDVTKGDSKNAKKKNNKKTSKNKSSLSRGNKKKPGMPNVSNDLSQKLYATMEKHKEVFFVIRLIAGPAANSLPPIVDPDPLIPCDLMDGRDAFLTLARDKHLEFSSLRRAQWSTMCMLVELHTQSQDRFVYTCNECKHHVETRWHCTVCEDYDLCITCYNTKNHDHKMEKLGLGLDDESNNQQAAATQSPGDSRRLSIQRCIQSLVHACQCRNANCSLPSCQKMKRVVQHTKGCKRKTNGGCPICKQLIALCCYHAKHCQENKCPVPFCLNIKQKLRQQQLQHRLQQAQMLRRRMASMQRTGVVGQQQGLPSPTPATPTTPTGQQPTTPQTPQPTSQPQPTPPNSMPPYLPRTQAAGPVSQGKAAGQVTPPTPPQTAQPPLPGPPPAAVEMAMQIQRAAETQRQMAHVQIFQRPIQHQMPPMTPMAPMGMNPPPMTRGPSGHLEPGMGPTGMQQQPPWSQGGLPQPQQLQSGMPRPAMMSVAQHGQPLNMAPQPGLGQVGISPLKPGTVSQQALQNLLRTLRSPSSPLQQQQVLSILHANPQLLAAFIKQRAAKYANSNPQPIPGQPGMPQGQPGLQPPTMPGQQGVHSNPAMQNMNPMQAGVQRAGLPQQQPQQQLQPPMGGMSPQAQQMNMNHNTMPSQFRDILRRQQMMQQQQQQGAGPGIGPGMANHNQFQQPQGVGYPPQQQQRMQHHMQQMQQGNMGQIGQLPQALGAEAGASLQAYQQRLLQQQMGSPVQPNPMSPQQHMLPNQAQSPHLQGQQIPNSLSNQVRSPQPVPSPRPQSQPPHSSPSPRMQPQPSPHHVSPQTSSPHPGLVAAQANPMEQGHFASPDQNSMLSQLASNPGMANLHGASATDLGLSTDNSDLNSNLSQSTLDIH

CC(=O)N1CCc2c(c(N3CCCc4cc(-c5cnn(C)c5)c(C(F)F)cc43)nn2C2CCN(C(=O)CCN3CCN(Cc4ccc5c(c4)n(C)c(=O)n5C4CCC(=O)NC4=O)CC3)CC2)C1 (stereo not shown) [P-216, 3-(5-((4-(3-(4-(5-Acetyl-3-(7-(difluoromethyl)-6-(1-methyl-1H-pyrazol-4-yl)-3,4-dihydroquinolin-1(2H)-yl)-4,5,6,7-tetrahydro-1H-pyrazolo[4,3-c]pyridin-1-yl)piperidin-1-yl)-3-oxopropyl)piperazin-1-yl)methyl)-3-methyl-2-oxo-2,3-dihydro-1H-benzo[d]imidazol-1-yl)piperidine-2,6-dione]
IC50 [1]: 26.8 nM
inhibition at 0.01 µM (P300): 20 to 50%

CC(=O)N1CCc2c(c(N3CCCc4cc(-c5cnn(C)c5)c(C(F)F)cc43)nn2C2CCN(C(=O)CCCN3CCC(CNc4ccc5c(c4)n(C)c(=O)n5C4CCC(=O)NC4=O)CC3)CC2)C1 (stereo not shown) [P-217, 3-(5-(((1-(4-(4-(5-Acetyl-3-(7-(difluoromethyl)-6-(1-methyl-1H-pyrazol-4-yl)-3,4-dihydroquinolin-1(2H)-yl)-4,5,6,7-tetrahydro-1H-pyrazolo[4,3-c]pyridin-1-yl)piperidin-1-yl)-4-oxobutyl)piperidin-4-yl)methyl)amino)-3-methyl-2-oxo-2,3-dihydro-1H-benzo[d]imidazol-1-yl)piperidine-2,6-dione]
IC50 [1]: 21.6 nM
inhibition at 0.01 µM (P300): 50 to 80%

CC(=O)N1CCc2c(c(N3CCCc4cc(-c5cnn(C)c5)c(C(F)F)cc43)nn2C2CCN(C(=O)CCN3CCC(CNc4ccc5c(c4)n(C)c(=O)n5C4CCC(=O)NC4=O)CC3)CC2)C1 (stereo not shown) [P-218, 3-(5-(((1-(3-(4-(5-Acetyl-3-(7-(difluoromethyl)-6-(1-methyl-1H-pyrazol-4-yl)-3,4-dihydroquinolin-1(2H)-yl)-4,5,6,7-tetrahydro-1H-pyrazolo[4,3-c]pyridin-1-yl)piperidin-1-yl)-3-oxopropyl)piperidin-4-yl)methyl)amino)-3-methyl-2-oxo-2,3-dihydro-1H-benzo[d]imidazol-1-yl)piperidine-2,6-dione]
IC50 [1]: 18.7 nM
inhibition at 0.01 µM (P300): > 80%

CC(=O)N1CCc2c(c(N3CCCc4cc(-c5cnn(C)c5)c(C(F)F)cc43)nn2C2CCN(C(=O)CN3CCN(CC#Cc4ccc5c(c4)n(C)c(=O)n5C4CCC(=O)NC4=O)CC3)CC2)C1 (stereo not shown) [P-219, 3-(5-(3-(4-(2-(4-(5-Acetyl-3-(7-(difluoromethyl)-6-(1-methyl-1H-pyrazol-4-yl)-3,4-dihydroquinolin-1(2H)-yl)-4,5,6,7-tetrahydro-1H-pyrazolo[4,3-c]pyridin-1-yl)piperidin-1-yl)-2-oxoethyl)piperazin-1-yl)prop-1-yn-1-yl)-3-methyl-2-oxo-2,3-dihydro-1H-benzo[d]imidazol-1-yl)piperidine-2,6-dione]
IC50 [1]: 64.7 nM
inhibition at 0.01 µM (P300): 20 to 50%

CC(=O)N1CCc2c(c(N3CCCc4cc(-c5cnn(C)c5)c(C(F)F)cc43)nn2C2CCN(C(=O)CN3CCN(CCCc4ccc5c(c4)n(C)c(=O)n5C4CCC(=O)NC4=O)CC3)CC2)C1 (stereo not shown) [P-220, 3-(5-(3-(4-(2-(4-(5-Acetyl-3-(7-(difluoromethyl)-6-(1-methyl-1H-pyrazol-4-yl)-3,4-dihydroquinolin-1(2H)-yl)-4,5,6,7-tetrahydro-1H-pyrazolo[4,3-c]pyridin-1-yl)piperidin-1-yl)-2-oxoethyl)piperazin-1-yl)propyl)-3-methyl-2-oxo-2,3-dihydro-1H-benzo[d]imidazol-1-yl)piperidine-2,6-dione]
IC50 [1]: 15.5 nM
inhibition at 0.01 µM (P300): 50 to 80%

CC(=O)N1CCc2c(c(N3CCCc4cc(-c5cnn(C)c5)c(C(F)F)cc43)nn2C2CCN(C(=O)CCN3CCC(CCc4ccc5c(c4)n(C)c(=O)n5C4CCC(=O)NC4=O)CC3)CC2)C1 (stereo not shown) [P-221, 3-(5-(2-(1-(3-(4-(5-acetyl-3-(7-(difluoromethyl)-6-(1-methyl-1H-pyrazol-4-yl)-3,4-dihydroquinolin-1(2H)-yl)-4,5,6,7-tetrahydro-1H-pyrazolo[4,3-c]pyridin-1-yl)piperidin-1-yl)-3-oxopropyl)piperidin-4-yl)ethyl)-3-methyl-2-oxo-2,3-dihydro-1H-benzo[d]imidazol-1-yl)piperidine-2,6-dione]
IC50 [1]: 2.5 nM
inhibition at 0.01 µM (P300): > 80%

CC(=O)N1CCc2c(c(N3CCCc4cc(-c5cnn(C)c5)c(C(F)F)cc43)nn2C2CCN(C(=O)CCCN3CCC(CCc4ccc5c(c4)n(C)c(=O)n5C4CCC(=O)NC4=O)CC3)CC2)C1 (stereo not shown) [P-222, 3-(5-(2-(1-(4-(4-(5-acetyl-3-(7-(difluoromethyl)-6-(1-methyl-1H-pyrazol-4-yl)-3,4-dihydroquinolin-1(2H)-yl)-4,5,6,7-tetrahydro-1H-pyrazolo[4,3-c]pyridin-1-yl)piperidin-1-yl)-4-oxobutyl)piperidin-4-yl)ethyl)-3-methyl-2-oxo-2,3-dihydro-1H-benzo[d]imidazol-1-yl)piperidine-2,6-dione]
IC50 [1]: 1.4 nM
inhibition at 0.01 µM (P300): > 80%

CC(=O)N1CCc2c(c(N3CCCc4cc(-c5cnn(C)c5)c(C(F)F)cc43)nn2C2CCN(C(=O)CCCN3CCC(C#Cc4cccc5c4ccn5C4CCC(=O)NC4=O)CC3)CC2)C1 (stereo not shown) [P-223, 3-(4-((1-(4-(4-(5-Acetyl-3-(7-(difluoromethyl)-6-(1-methyl-1H-pyrazol-4-yl)-3,4-dihydroquinolin-1(2H)-yl)-4,5,6,7-tetrahydro-1H-pyrazolo[4,3-c]pyridin-1-yl)piperidin-1-yl)-4-oxobutyl)piperidin-4-yl)ethynyl)-1H-indol-1-yl)piperidine-2,6-dione]
IC50 [1]: 43.7 nM
inhibition at 0.01 µM (P300): 50 to 80%

CC(=O)N1CCc2c(c(N3CCCc4cc(-c5cnn(C)c5)c(C(F)F)cc43)nn2C2CCN(C(=O)CCCN3CCN(CC#Cc4cccc5c4n(C)c(=O)n5C4CCC(=O)NC4=O)CC3)CC2)C1 (stereo not shown) [P-224, 3-(4-(3-(4-(4-(4-(5-acetyl-3-(7-(difluoromethyl)-6-(1-methyl-1H-pyrazol-4-yl)-3,4-dihydroquinolin-1(2H)-yl)-4,5,6,7-tetrahydro-1H-pyrazolo[4,3-c]pyridin-1-yl)piperidin-1-yl)-4-oxobutyl)piperazin-1-yl)prop-1-yn-1-yl)-3-methyl-2-oxo-2,3-dihydro-1H-benzo[d]imidazol-1-yl)piperidine-2,6-dione]
IC50 [1]: 9.9 nM
inhibition at 0.01 µM (P300): > 80%

CC(=O)N1CCc2c(c(N3CCCc4cc(-c5cnn(C)c5)c(C(F)F)cc43)nn2C2CCN(C(=O)CCCN3CCN(CCCc4cccc5c4n(C)c(=O)n5C4CCC(=O)NC4=O)CC3)CC2)C1 (stereo not shown) [P-225, 3-(4-(3-(4-(4-(4-(5-Acetyl-3-(7-(difluoromethyl)-6-(1-methyl-1H-pyrazol-4-yl)-3,4-dihydroquinolin-1(2H)-yl)-4,5,6,7-tetrahydro-1H-pyrazolo[4,3-c]pyridin-1-yl)piperidin-1-yl)-4-oxobutyl)piperazin-1-yl)propyl)-3-methyl-2-oxo-2,3-dihydro-1H-benzo[d]imidazol-1-yl)piperidine-2,6-dione]
IC50 [1]: 43.4 nM
inhibition at 0.01 µM (P300): 50 to 80%

CC(=O)N1CCc2c(c(N3CCCc4cc(-c5cnn(C)c5)c(C(F)F)cc43)nn2C2CCN(C(=O)CN3CCC(C#Cc4cccc5c4n(C)c(=O)n5C4CCC(=O)NC4=O)CC3)CC2)C1 (stereo not shown) [P-227, 3-(4-((1-(2-(4-(5-acetyl-3-(7-(difluoromethyl)-6-(1-methyl-1H-pyrazol-4-yl)-3,4-dihydroquinolin-1(2H)-yl)-4,5,6,7-tetrahydro-1H-pyrazolo[4,3-c]pyridin-1-yl)piperidin-1-yl)-2-oxoethyl)piperidin-4-yl)ethynyl)-3-methyl-2-oxo-2,3-dihydro-1H-benzo[d]imidazol-1-yl)piperidine-2,6-dione]
IC50 [1]: 1.8 nM
inhibition at 0.01 µM (P300): > 80%

CC(=O)N1CCc2c(c(N3CCCc4cc(-c5cnn(C)c5)c(C(F)F)cc43)nn2C2CCN(C(=O)CN3CCC(CCc4cccc5c4n(C)c(=O)n5C4CCC(=O)NC4=O)CC3)CC2)C1 (stereo not shown) [P-228, 3-(4-(2-(1-(2-(4-(5-acetyl-3-(7-(difluoromethyl)-6-(1-methyl-1H-pyrazol-4-yl)-3,4-dihydroquinolin-1(2H)-yl)-4,5,6,7-tetrahydro-1H-pyrazolo[4,3-c]pyridin-1-yl)piperidin-1-yl)-2-oxoethyl)piperidin-4-yl)ethyl)-3-methyl-2-oxo-2,3-dihydro-1H-benzo[d]imidazol-1-yl)piperidine-2,6-dione]
IC50 [1]: 0.3 nM
inhibition at 0.01 µM (P300): > 80%

CC(=O)N1CCc2c(c(N3CCCc4cc(-c5cnn(C)c5)c(C(F)F)cc43)nn2C2CCN(C(=O)CCCN3CCC(C#Cc4cccc5c4n(C)c(=O)n5C4CCC(=O)NC4=O)CC3)CC2)C1 (stereo not shown) [P-229, 3-(4-((1-(4-(4-(5-acetyl-3-(7-(difluoromethyl)-6-(1-methyl-1H-pyrazol-4-yl)-3,4-dihydroquinolin-1(2H)-yl)-4,5,6,7-tetrahydro-1H-pyrazolo[4,3-c]pyridin-1-yl)piperidin-1-yl)-4-oxobutyl)piperidin-4-yl)ethynyl)-3-methyl-2-oxo-2,3-dihydro-1H-benzo[d]imidazol-1-yl)piperidine-2,6-dione]
IC50 [1]: 0.4 nM
inhibition at 0.01 µM (P300): > 80%

CC(=O)N1CCc2c(c(N3CCCc4cc(-c5cnn(C)c5)c(C(F)F)cc43)nn2C2CCN(C(=O)CCCN3CCC(CCc4cccc5c4n(C)c(=O)n5C4CCC(=O)NC4=O)CC3)CC2)C1 (stereo not shown) [P-230, 3-(4-(2-(1-(4-(4-(5-Acetyl-3-(7-(difluoromethyl)-6-(1-methyl-1H-pyrazol-4-yl)-3,4-dihydroquinolin-1(2H)-yl)-4,5,6,7-tetrahydro-1H-pyrazolo[4,3-c]pyridin-1-yl)piperidin-1-yl)-4-oxobutyl)piperidin-4-yl)ethyl)-3-methyl-2-oxo-2,3-dihydro-1H-benzo[d]imidazol-1-yl)piperidine-2,6-dione]
IC50 [1]: 17.1 nM
inhibition at 0.01 µM (P300): > 80%
